Tests used:
Experiment in all cases: relative viability (nuclei count vs DMSO), 5 days (fraction); higher = more cells survive
BMX-IN-1 = compound: C=CC(=O)Nc1cc(-n2c(=O)ccc3cnc4ccc(-c5ccc(NS(C)(=O)=O)cc5)cc4c32)ccc1C [BMX-IN-1]
Procedure, shortened: (§1)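 Cells of lung cancer lines were placed in 1536-well plates and kept overnight at 37 °C. Pinning then delivered five library-drug doses (not always all listed), spaced by √10, onto plates anchored with vehicle, and the cells were left 5 days without changing medium. One step fixed, permeabilised and stained them with Hoechst, and MetaXpress counted nuclei in 4× images. Viability, as a median over plates, is treated-well nuclei divided by vehicle-well nuclei, with acceptance only at control CV below 25% and at least one doubling.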

PAC-1 = compound: C=CCc1cccc(/C=N/NC(=O)CN2CCN(Cc3ccccc3)CC2)c1O [PAC-1]
Procedure, shortened: as §1

PAC-1 + Foretinib = compound: C=CCc1cccc(/C=N/NC(=O)CN2CCN(Cc3ccccc3)CC2)c1O [PAC-1] + COc1cc2c(Oc3ccc(NC(=O)C4(C(=O)Nc5ccc(F)cc5)CC4)cc3F)ccnc2cc1OCCCN1CCOCC1 [Foretinib] (partner 0.25 µM)
Procedure, shortened: (§2)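 Each reported value is a median over duplicate plates. It expresses relative viability: treated-well nuclei count divided by vehicle-well nuclei count. Lung cancer cell lines in 1536-well plates were dosed by pin tool a day after seeding, alone with one drug or with a fixed anchor-drug dose plus five library-drug doses (not always all listed) in √10 steps, and nuclei were counted after 5 days.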

Ibrutinib + Vorinostat = compound: C=CC(=O)N1CCC[C@@H](n2nc(-c3ccc(Oc4ccccc4)cc3)c3c(N)ncnc32)C1 [Ibrutinib] + O=C(CCCCCCC(=O)Nc1ccccc1)NO [Vorinostat] (partner 1 µM)
Procedure, shortened: as §2

In the case of SK-MES-1, the relative viability (BMX-IN-1; 0.02 µM) is reported as 1.1, the relative viability (BMX-IN-1; 0.2 µM) is reported as 1.1 and the relative viability (BMX-IN-1; 0.6325 µM) is reported as 1.11. The relative viability (BMX-IN-1; 2 µM) was 0.998, the relative viability (PAC-1; 0.02 µM) was 0.974 and the relative viability (PAC-1; 0.06325 µM) was 0.987. The relative viability (PAC-1; 0.2 µM) was 0.94, the relative viability (PAC-1; 2 µM) was 1.02 and the relative viability (PAC-1 + Foretinib; first compound 0.02 µM) was 0.816. The relative viability (PAC-1 + Foretinib; first compound 0.06325 µM) was 1.03, the relative viability (PAC-1 + Foretinib; first compound 0.2 µM) was 0.851 and the relative viability (PAC-1 + Foretinib; first compound 2 µM) was 0.943. The relative viability (Ibrutinib + Vorinostat; first compound 0.005 µM) was 1.16, the relative viability (Ibrutinib + Vorinostat; first compound 0.01581 µM) was 1.05 and the relative viability (Ibrutinib + Vorinostat; first compound 0.05 µM) was 1.07. For the same cell line, the relative viability (Ibrutinib + Vorinostat; first compound 0.1581 µM) was 1.26 and the relative viability (Ibrutinib + Vorinostat; first compound 0.5 µM) was 0.747.

From the supplement of paper PMC10307832
